From patent publication US20250339426A1, “GCN2 MODULATOR FOR TREATING CANCER” (HIBERCELL, INC., priority 2022, published 2025)

Tests used:
[1] = system: GCN2 pathway (p-GCN2, ATF4) in HT1080 cells; assay: Western blot analysis of HT1080 cell lysates; assay type: cell-based, human; details: FIG. 5
Experimental: The HT1080 cells were harvested and counted and diluted to the desired density. 2 mL of cell suspension was added into each well of 6-well cell culture plate. The plates were transferred into 37° C., 5% CO2 incubator overnight. The cells were treated as described above. The media was aspirated, and cells were washed with ice cold phosphate buffered saline (PBS). Ice cold 1× radioimmunoprecipitation assay (RIPA) lysis buffer supplemented with protease and phosphatase inhibitors was added to the cell pellets, on ice. After 30 min on ice the cell lysates were centrifuged at 4° C., 12,000 rpm for 15 minutes and the supernatant collected. Protein concentration was determined using BCA kit. The cell lysates were mixed with 5× sodium dodecyl sulfate (SDS) loading buffer and denatured at 95° C. for 5 minutes. […] After the electrophoresis was completed, the separated protein was transferred to a nitrocellulose membrane using transblot system for 90 min, 300 mA, then the membrane was blocked with (tris-buffered saline) TBS buffer (5% bovine serum albumin (BSA)) for 1 hr at room temperature. The membrane was exposed to the primary antibodies overnight in cold room in TBS buffer (1% BSA). The membrane was then washed with TBS-Tween for 3×10 min at R/T, incubated with secondary antibodies in TBS buffer (1% BSA) for 1 hr at RT. The membrane was washed with TBS-Tween for 3×10 min at R/T and the imaging was acquired with Li—COR imaging system.

[2] = system: TM00298 (human prostate cancer cells); assay: In vivo tumor growth inhibition, TM00298 PDX; design: species or system NSG mice; details: both 3 mg/kg and 30 mg/kg twice daily oral
Experimental: TM00298 (human prostate cancer cells): Male 6-8 weeks old NSG mice were inoculated subcutaneously with 1 mm^3 TM00298 tumor fragments. The treatments were started when the mean tumor size reached approximately 123 mm^3 and continued until end of study by twice daily oral gavage dosing of HC-7366 at listed doses (vehicle, 3 mg/kg HC-7366, or 30 mg/kg HC-7366, FIG. 15).
(§1) [formula] • 2.2.2 Tumor Measurements: The measurement of tumor size was conducted three times weekly with a caliper and recorded. The tumor volume (mm^3) was estimated using the formula: TV=a×b^2/2, where “a” and “b” is long and short diameters of a tumor, respectively. Tumor volume was calculated using the formula [tumor volume (mm^3)=π/6×length×width^2).
(§2) Regression was calculated using the formula=100×ΔT/T initial, if ΔT<0. Animals with 0 mm^3 tumor volume (no measurable tumor) for three consecutive measurements were considered as complete responders and animals with 50% tumor regressions were partial responders.

FaDu cells = assay: CTG viability assay, FaDu sgControl and sgGCN2 cells; assay type: cell-based, human; details: 72 or 96 hr
Experimental: FaDu cells were obtained from ATCC (#HTB-43) and were cultured in Eagle's Minimum Essential Medium, Catalog No. 30-2003 at 37° C. and 5% CO2. FaDu GCN2 CRISPR knockout cells (sgGCN2) or control cells (sgControl) were generated. For viability experiments, cells were plated in 384-well cell culture plates and incubated overnight. Compounds were diluted in 10 concentrations by 3-fold dilution in 384pp-plate using TECAN EVO200 to a final concentration ranging from […]. The plates were incubated for 72 or 96 hr and viability was assessed by adding CellTiter-Glo® 2.0 Assay according to the manufacturer's protocol (Promega, G9243) to each well. The plates were then incubated at RT for 30 min. The luminescent signals were read by Envision (PerkinElmer) plate reader and analyzed by Prism

[3] = system: Ki67 positive cells in DLD-1 tumor sections; assay: IHC staining of Ki67 in DLD-1 tumor sections; assay type: in vivo, mice
Experimental: (§3) DLD-1 (human colorectal cancer cells): Female 6-8 weeks old BALB/c nude mice were inoculated subcutaneously on the right flank with DLD-1 tumor cells (5×10^6) in 0.1 ml of RPMI1640 medium without serum for tumor development. The treatments were started when the mean tumor size reached approximately 195 mm^3 at Day 7 post inoculation and continued until end of study by twice daily oral gavage dosing of HC-7366 at listed doses (vehicle, 0.3 mg/kg HC-7366, 1 mg/kg HC-7366, 3 mg/kg HC-7366, 10 mg/kg HC-7366, or 30 mg/kg HC-7366, FIG. 10). For the time course study, tumors were harvested at Days 4, 7 and 14. Tumors were then used for IHC and RNAseq experiments (see Example 21).
DLD-1 tumor bearing mice were treated with HC-7366 at 0.3, 1, 3, 10 and 30 mg/kg twice a day for 14 days. Tumors were harvested for RNAseq analysis at Day 4, Day 7 and Day 14 (FIG. 128).

[4] = system: DLD-1 (human colorectal cancer cells); assay: In vivo tumor growth inhibition, DLD-1 xenograft; design: species or system BALB/c nude mice; details: for TGI %: combination studies (Examples 9, 11)
Experimental: as §3, §1, §2
(§4) The effect of DC101 in combination with HC-7366 in DLD-1 tumor-bearing mice was evaluated using protocols analogous to those described in Example 6. Mice were treated with 3 or 30 mg/kg HC-7366, twice daily by oral gavage. DC101 was administered at 20 mg/kg twice weekly and with twice daily dosing via intraperitoneal injection.
as §4, with “5-fluorouracil” for “DC101”, “75” for “20”, “once a week,” for “twice weekly and with”, “daily” for “daily dosing”, “intravenous” for “intraperitoneal”

[5] = system: HCT116 (human colorectal cancer cells); assay: In vivo tumor growth inhibition, HCT116 xenograft; design: species or system Athymic Nude-Foxn1nu mice
Experimental: HCT116 (human colorectal cancer cells): Female 7-8 weeks old Athymic Nude-Foxn1nu mice were inoculated subcutaneously on the right flank with HCT116 tumor cells (5 ×10^6) in 0.1 ml of McCoy's 5a medium without serum for tumor development. Single agent HC-7366 was dosed at 3 or 30 mg/kg (twice daily, orally), Trametinib at 1 mg/kg (once a day, orally) and Alpelisib at 50 mg/kg (once a day, orally). HC-7366 was combined with either Trametinib or Alpelisib. The treatments were started when the mean tumor size reached approximately 270 mm^3 at Day 18 post inoculation and continued until end of study (FIGS. 63-64).
as §1, §2

Structure (SMILES): CNC(=O)c1ncn2cc(-c3c(F)ccc(NS(=O)(=O)c4cc(Cl)cnc4OC)c3F)ncc12 [HC-7366, 6-(3-((5-chloro-2-methoxypyridine)-3-sulfonamido)-2,6-difluorophenyl)-N-methylimidazo[1,5-a]pyrazine-1-carboxamide]
- GCN2 pathway, HC-7366 by itself ([1]; 0 to 10 μM): activation of GCN2 pathway
- halofuginone induced p-GCN2 and ATF4 ([1]; 100 nM Halofuginone): inhibited
- tumor growth inhibition [2]: ~70%
- viability (FaDu cells; FaDu control cells): potently reduced viability
- viability response (FaDu cells; GCN2 CRISPR knockout cells): reversed
- Ki67 positive cancer cells ([3]; Day 4, 0.3, 10 or 30 mg/kg): not at the less efficacious doses
- Ki67 positive cancer cells ([3]; Day 4, 1 and 3 mg/kg): significantly reduced
- tumor growth inhibition ([4]; 1 mg/kg and 3 mg/kg twice daily oral): ~78%
- TGI % ([4]; HC-7366 3 mg/kg twice daily oral): ~65%
- TGI % ([4]; HC-7366 30 mg/kg twice daily oral): ~21%
- TGI ([5]; HC-7366 3 mg/kg twice daily, alpelisib study (FIG. 63), trend): ~38%
- effect on tumor growth ([5]; HC-7366 30 mg/kg twice daily, alpelisib study (FIG. 63)): did not reduce tumor growth
- efficacy ([5]; HC-7366 at either 3 or 30 mg/kg, trametinib study (FIG. 64)): did not show efficacy
